# According to patent US9873690B2, “3-indol substituted derivatives, pharmaceutical compositions and methods for use” (Pfizer Inc., priority 2015, dated 2018):
# Target: T1, hTDO2 (Homo sapiens, UniProt P48775)
# T1 construct: endogenous in cells; host or cells: A172 human brain glioblastoma cells (ATCC CRL-1620)
# Assay: Cellular assay for TDO2 activity determination in A172 cells
# Format: cell-based
# Details: human glioblastoma A172 cells naturally expressing hTDO2; overnight incubation; kynurenine by absorbance at 480 nm
# In short: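 A172 glioblastoma cells endogenously expressing hTDO2, 1.25×10^4 cells/well, incubated overnight at 37 °C, 5% CO2 in IMDM with 2% FBS and ten compound concentrations. Supernatant kynurenine measured after TCA treatment and Ehrlich's reagent (4-dimethylaminobenzaldehyde) by absorbance at 480 nm against a kynurenine standard curve, then curve-fitted.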
# T1 sequence (P48775 whole entry): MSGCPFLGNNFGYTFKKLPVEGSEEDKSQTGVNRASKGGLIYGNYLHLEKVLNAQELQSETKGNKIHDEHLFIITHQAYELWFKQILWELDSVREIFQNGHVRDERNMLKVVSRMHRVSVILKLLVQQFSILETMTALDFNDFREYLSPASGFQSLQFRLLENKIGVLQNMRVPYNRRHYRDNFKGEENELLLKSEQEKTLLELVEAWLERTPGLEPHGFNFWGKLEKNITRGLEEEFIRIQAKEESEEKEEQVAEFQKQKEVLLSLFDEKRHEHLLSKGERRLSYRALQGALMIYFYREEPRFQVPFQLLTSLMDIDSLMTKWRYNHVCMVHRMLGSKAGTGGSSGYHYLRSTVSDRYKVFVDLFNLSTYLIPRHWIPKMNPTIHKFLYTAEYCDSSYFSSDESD
row,SMILES,IC50 [nM]
1,"O=S1(=O)NC2(CC2)c2cc(-c3c[nH]c4cc(F)ccc34)ccc21 [Example 136, 5-(6-fluoro-1H-indol-3-yl)-2H-spiro[benzo[d]-isothiazole-3,1′-cyclopropane] 1,1-dioxide]",233
2,"CC1c2cc(-c3c[nH]c4cc(F)ccc34)ccc2S(=O)(=O)N1CC1(C)COC(=O)N1 (single isomer, unassigned; (+)) [Example 89, (+)-4-((5-(6-fluoro-1H-indol-3-yl)-3-methyl-1,1-dioxidobenzo[d]isothiazol-2(3H)-yl)methyl)-4-methyloxazolidin-2-one]",58
3,"CNC(=O)C(O)CN1C(C)c2cc(-c3c[nH]c4cc(F)ccc34)ccc2S1(=O)=O (single isomer, unassigned; (-)) [Example 100, (−)-3-(5-(6-fluoro-1H-indol-3-yl)-3-methyl-1,1-dioxidobenzo[d]isothiazol-2(3H)-yl)-2-hydroxy-N-methylpropanamide]",33
4,"CC1c2cc(-c3c[nH]c4cc(F)ccc34)ccc2S(=O)(=O)N1CC(N)=O (single isomer, unassigned; (+)) [Example 115]",88
5,"CNC(=O)C(N)CN1C(C)c2cc(-c3c[nH]c4cc(F)ccc34)ccc2S1(=O)=O (single isomer, unassigned; (+)) [Example 102, (+)-2-amino-3-(5-(6-fluoro-1H-indol-3-yl)-3-methyl-1,1-dioxidobenzo[d]isothiazol-2(3H)-yl)-N-methylpropanamide]",114
6,"O=S1(=O)NC(CCO)c2cc(-c3c[nH]c4cc(F)ccc34)ccc21 (single isomer, unassigned; (-)) [Example 29, (−)-5-(6-fluoro-1H-indol-3-yl)-3-(2-hydroxyethyl)-2,3-dihydrobenzo[d]isothiazole 1,1-dioxide]",126
7,"CNC(=O)CN1C(CO)c2cc(-c3c[nH]c4cc(F)ccc34)ccc2S1(=O)=O (single isomer, unassigned; (-)) [Example 127, (−)-2-(5-(6-fluoro-1H-indol-3-yl)-3-(hydroxymethyl)-1,1-dioxidobenzo[d]isothiazol-2(3H)-yl)-N-methylacetamide]",87
8,"NC(=O)C1NS(=O)(=O)c2ccc(-c3c[nH]c4cc(F)ccc34)cc21 (single isomer, unassigned; (-)) [Example 15, (−)-5-(6-fluoro-1H-indol-3-yl)-2,3-dihydrobenzo[d]-Isothiazole-3-carboxamide 1,1-dioxide]",2070
9,"O=S1(=O)c2ccc(-c3c[nH]c4cc(F)ccc34)cc2CN1[C@@H]1CCOC1 [Example 38, (R)-5-(6-fluoro-1H-indol-3-yl)-2-(tetrahydrofuran-3-yl)-2,3-dihydrobenzo[d]isothiazole 1,1-dioxide]",380
10,"CCCC1NS(=O)(=O)c2ccc(-c3c[nH]c4cc(F)ccc34)cc21 (single isomer, unassigned; (+)) [Example 6, (+)-5-(6-fluoro-1H-indol-3-yl)-3-propyl-2,3-dihydrobenzo[d]isothiazole 1,1-dioxide]",367
11,"CC1c2cc(-c3c[nH]c4cc(F)ccc34)ccc2S(=O)(=O)N1C[C@@]1(C)CCC(=O)N1 (single isomer, unassigned; (-)) [Example 83]",152
12,"CNC(=O)CCN1C(C)c2cc(-c3c[nH]c4cc(F)ccc34)ccc2S1(=O)=O (single isomer, unassigned; (-)) [Example 46, (−)-3-(5-(6-fluoro-1H-indol-3-yl)-3-methyl-1,1-dioxidobenzo[d]isothiazol-2(3H)-yl)-N-methylpropanamide]",328
13,"CNS(=O)(=O)CCN1C(C)c2cc(-c3c[nH]c4cc(F)ccc34)ccc2S1(=O)=O (single isomer, unassigned; (+)) [Example 60, (+)-2-(5-(6-fluoro-1H-indol-3-yl)-3-methyl-1,1-dioxidobenzo[d]isothiazol-2(3H)-yl)-N-methylethane-1-sulfonamide]",133
14,"CCOC(=O)NCCN1C(C)c2cc(-c3c[nH]c4cc(F)ccc34)ccc2S1(=O)=O (single isomer, unassigned; (+)) [Example 110, (+)-ethyl (2-(5-(6-fluoro-1H-indol-3-yl)-3-methyl-1,1-dioxidobenzo[d]isothiazol-2(3H)-yl)ethyl)carbamate]",157
15,"CC1c2cc(-c3c[nH]c4cc(F)ccc34)ccc2S(=O)(=O)N1C1CCNCC1 (single isomer, unassigned; (+)) [Example 52, (+)-5-(6-fluoro-1H-indol-3-yl)-3-methyl-2-(piperidin-4-yl)-2,3-dihydrobenzo[d]isothiazole 1,1-dioxide]",563
16,"CC1c2cc(-c3c[nH]c4cc(F)ccc34)ccc2S(=O)(=O)N1CC1CCNCC1 (single isomer, unassigned; (-)) [Example 77, (−) 5-(6-fluoro-1H-indol-3-yl)-3-methyl-2-(piperidin-4-ylmethyl)-2,3-dihydrobenzo[d]isothiazole 1,1-dioxide]",415

# Other lines, results leading:
row,IC50 [nM],SMILES
1,120,"CNC(=O)C(N)CN1C(C)c2cc(-c3c[nH]c4cc(F)ccc34)ccc2S1(=O)=O (single isomer, unassigned; (+)) [Example 104, (+) 2-amino-3-(5-(6-fluoro-1H-indol-3-yl)-3-methyl-1,1-dioxidobenzo[d]isothiazol-2(3H)-yl)-N-methylpropanamide]"
2,39,"Cn1cnc(CN2C(CO)c3cc(-c4c[nH]c5cc(F)ccc45)ccc3S2(=O)=O)n1 (single isomer, unassigned; (-)) [Example 129, (−)-5-(6-fluoro-1H-indol-3-yl)-3-(hydroxymethyl)-2-((1-methyl-1H-1,2,4-triazol-3-yl)methyl)-2,3-dihydrobenzo[d]isothiazole 1,1-dioxide]"
3,47,"CC(C)C1NS(=O)(=O)c2ccc(-c3c[nH]c4cc(F)ccc34)cc21 (single isomer, unassigned; (+)) [Example 8, (+)-5-(6-fluoro-1H-indol-3-yl)-3-isopropyl-2,3-dihydrobenzo[d]isothiazole 1,1-dioxide]"
4,93,"CNC(=O)C(CN1C(C)c2cc(-c3c[nH]c4cc(F)ccc34)ccc2S1(=O)=O)OC (single isomer, unassigned; (-)) [Example 108, (−)-3-(5-(6-fluoro-1H-indol-3-yl)-3-methyl-1,1-dioxidobenzo[d]isothiazol-2(3H)-yl)-2-methoxy-N-methylpropanamide]"
5,53,"CC1c2cc(-c3c[nH]c4cc(F)ccc34)ccc2S(=O)(=O)N1CCc1n[nH]c(=O)o1 (single isomer, unassigned; (+)) [Example 134, (+)-5-(2-(5-(6-fluoro-1H-indol-3-yl)-3-methyl-1,1-dioxidobenzo[d]isothiazol-2 (3H)-yl)ethyl)-1,3,4-oxadiazol-2(3H)-one]"
6,67,"CC1c2cc(-c3c[nH]c4cc(F)ccc34)ccc2S(=O)(=O)N1CCS(N)(=O)=O (single isomer, unassigned; (-)) [Example 62, (−)-2-(5-(6-fluoro-1H-indol-3-yl)-3-methyl-1,1-dioxidobenzo[d]-isothiazol-2(3H)-yl)ethane-1-sulfonamide]"
7,112,"Cn1cnc(CN2C(CO)c3cc(-c4c[nH]c5cc(F)ccc45)ccc3S2(=O)=O)n1 (single isomer, unassigned; (+)) [Example 130, (+)-5-(6-fluoro-1H-indol-3-yl)-3-(hydroxymethyl)-2-((1-methyl-1H-1,2,4-triazol-3-yl)methyl)-2,3-dihydrobenzo[d]isothiazole 1,1-dioxide]"
8,269,"CC1c2cc(-c3c[nH]c4cc(F)ccc34)ccc2S(=O)(=O)N1C[C@@H](O)CO (single isomer, unassigned) [Example 93]"
9,156,"COC(=O)NCC1NS(=O)(=O)c2ccc(-c3c[nH]c4cc(F)ccc34)cc21 (single isomer, unassigned; (-)) [Example 21, (−)-methyl ((5-(6-fluoro-1H-indol-3-yl)-1,1-dioxido-2,3-dihydrobenzo[d]isothiazol-3-yl)methyl)carbamate]"
10,505,"CC1c2cc(-c3c[nH]c4cc(F)ccc34)ccc2S(=O)(=O)N1C1CNC(=O)C1 (single isomer, unassigned; (-)) [Example 125, (−)-4-(5-(6-fluoro-1H-indol-3-yl)-3-methyl-1,1-dioxido-benzo[d]isothiazol-2(3H)-yl)pyrrolidin-2-one]"
11,859,"O=S1(=O)c2ccc(-c3c[nH]c4cc(F)ccc34)cc2CN1C1CNC1 [Example 40, 2-(azetidin-3-yl)-5-(6-fluoro-1H-indol-3-yl)-2,3-dihydrobenzo[d]isothiazole 1,1-dioxide]"
12,70,"CC1c2cc(-c3c[nH]c4cc(F)ccc34)ccc2S(=O)(=O)N1CCS(C)(=O)=O (single isomer, unassigned; (+)) [Example 53, (+)-5-(6-fluoro-1H-indol-3-yl)-3-methyl-2-(2-(methylsulfonyl)ethyl)-2,3-dihydrobenzo[d]isothiazole 1,1-dioxide]"
13,27,"C[C@H]1NS(=O)(=O)c2ccc(-c3c[nH]c4cc(F)ccc34)cc21 (single isomer, unassigned) [Example 1, (+)-5-(6-fluoro-1H-indol-3-yl)-3-methyl-2,3-dihydro-1,2-benzothiazole 1,1-dioxide]"
14,26,"CC1c2cc(-c3c[nH]c4cc(F)ccc34)ccc2S(=O)(=O)N1CC(N)=O (single isomer, unassigned; (-)) [Example 116]"
15,54,"CNC(=O)C(C)N1C(C)c2cc(-c3c[nH]c4cc(F)ccc34)ccc2S1(=O)=O (single isomer, unassigned; (+)) [Example 146, (+)-2-(5-(6-fluoro-1H-indol-3-yl)-3-methyl-1,1-dioxidobenzo[d]isothiazol-2(3H)-yl)-N-methylpropanamide]"
16,348,"CC1c2cc(-c3c[nH]c4cc(F)ccc34)ccc2S(=O)(=O)N1C1CCNC(=O)C1 (single isomer, unassigned; (+)) [Example 121, (+)-4-(-5-(6-fluoro-1H-indol-3-yl)-3-methyl-1,1-dioxidobenzo[d]isothiazol-2(3H)-yl)piperidin-2-one]"
